Literature values in patent EP1935424A1, “PHARMACEUTICAL COMPOSITIONS COMPRISING COMBINED ANTIDIABETIC SUBSTANCES FOR USE IN DIABETES MELLITUS” (ESPINOZA ABDALA, Leopoldo de Jesús, priority 2005, dated 2007).
Where two headings read alike, the source gives them in different places.

Tests used:
[1] = for half-life (clearance half-life in plasma): parent compound; for eliminated by renal route without being metabolized: share of the administered dose as non-metabolized drug; for absorption: oral / gastrointestinal tract, in words; for metabolized by: enzymes named; for bioavailability / tmax (plasma peak following administration): oral
[2] = test system: plasma proteins
[3] = table Sulfonylureas: Pharmacokinetc Properties, unit not given
[4] = route of clearance, table Sulfonylureas: Pharmacokinetc Properties

| SMILES | Action duration [1, 3] | Clearance [1, 4] | half-life (clearance half-life in plasma) [1] | metabolized by [1] | tmax (plasma peak following administration) [1] | binds to plasma proteins [2] | other results |
| --- | --- | --- | --- | --- | --- | --- | --- |
| COc1ccc(Cl)cc1C(=O)NCCc1ccc(S(=O)(=O)NC(=O)NC2CCCCC2)cc1 [Glibenclamide] | – | – | – | – | – | – | Action duration ([1]; in vivo): 12-16; Clearance ([1]; in vivo): Hepatic |
| Cc1ccc(S(=O)(=O)NC(=O)NN2CC3CCCC3C2)cc1 (centres unmarked) [Glicazide] | 12-13 | Hepatic | – | – | – | – | – |
| CCCNC(=O)NS(=O)(=O)c1ccc(Cl)cc1 [Chlorpropamide] | 24-72 | Hepatic and renal | 24 to 48 h | – | – | – | eliminated by renal route without being metabolized [1]: about 20% |
| C[C@H]1O[C@H](O[C@H]2[C@H](O)[C@@H](O)[C@@H](O[C@H]3[C@H](O)[C@@H](O)C(O)O[C@@H]3CO)O[C@@H]2CO)[C@H](O)[C@@H](O)[C@@H]1N[C@H]1C=C(CO)[C@@H](O)[C@H](O)[C@H]1O (some centres unmarked) [Acarbose] | – | – | – | – | – | – | absorbed orally ([1]; in vivo, po): < 2%; absorption [1]: poorly absorbed orally |
| CCC1=C(C)CN(C(=O)NCCc2ccc(S(=O)(=O)NC(=O)N[C@H]3CC[C@H](C)CC3)cc2)C1=O [Glimepiride] | 24 | Hepatic and renal | – | – | – | – | – |
| CN(C)C(=N)N=C(N)N [Metformin] | – | – | – | – | – | – | absorption is completed in ([1]; gastrointestinal tract): about 6 hours; excreted by renal route ([1]; of an oral dose in 12 hours): 90% |

Further lines, with some results ahead:

| Action duration [1, 3] | Clearance [1, 4] | half-life (clearance half-life in plasma) [1] | metabolized by [1] | tmax (plasma peak following administration) [1] | binds to plasma proteins [2] | SMILES | other results |
| --- | --- | --- | --- | --- | --- | --- | --- |
| 5-10 | – | – | – | – | – | Cc1cnc(C(=O)NCCc2ccc(S(=O)(=O)NC(=O)NC3CCCCC3)cc2)cn1 [Glipizide] | – |
| 2-4 | Hepatic | – | – | – | – | COc1ccc2c(c1)C(=O)N(CCc1ccc(S(=O)(=O)NC(=O)NC3CCCCC3)cc1)C(=O)C2(C)C [Gliquidone] | – |
| – | – | about 1.5 hours | CYP3A4 and CYP2C9 | 1 h | 97% | CC(C)[C@H]1CC[C@H](C(=O)N[C@H](Cc2ccccc2)C(=O)O)CC1 [Nateglinide] | bioavailability [1]: greater than 70%; absorption [1]: rapidly absorbed; eliminated by renal route without being metabolized [1]: About 16% |
| – | – | about 1 hours | cytochrome P450 and by glucuronidases | 1 h | more than 98% | CCOc1cc(CC(=O)N[C@@H](CC(C)C)c2ccccc2N2CCCCC2)ccc1C(=O)O [Repaglinide] | eliminated, time following administration ([1]; in vivo): 4 to 6 h; absorption [1]: rapidly absorbed; insulinotropic response to a meal occurs after taking an oral dose ([1]; patients with type 2 diabetes, oral dose): ≤ 30 min |
| – | – | 3 to 4 h | cytochrome P450 isoenzymes 2C8 and 2C9 | 1 h | 99.8% | CN(CCOc1ccc(CC2SC(=O)NC2=O)cc1)c1ccccn1 (centres unmarked) [Rosiglitazone] | eliminated in feces ([1]; in vivo): 23%; eliminated in urine ([1]; in vivo): 64%; bioavailability [1]: 99% |
| – | – | 5 to 6 h | CYP3A4 and CYP2C9 | 2 h | more than 99% | CCc1ccc(CCOc2ccc(CC3SC(=O)NC3=O)cc2)nc1 (centres unmarked) [Pioglitazone] | bioavailability [1]: ~80%; clearance half-life for the metabolites ([1]; three active metabolites): 16 to 24 h |
